Results taken from patent US4189433A, “4-Hydroxy-1,2-benzisothiazoles and their manufacture” (BASF Aktiengesellschaft, priority 1977, dated 1980).

Columns and labels:
[1] = Stability to light and to air; format: physicochemical; details: compared to 7-amino-4-hydroxy-1,2-benzisothiazole
female Swiss mice = assay: in vivo; details: mouse
Description: (§1) The acute toxicity was determined on groups of 10 or 20 female Swiss mice weighing 20-26 g, the compounds being administered intraperitoneally.

in vivo = details: mouse
Description: as §1

[2] = molecular target: T1, β2-receptors on the blood vessels (Rattus norvegicus, UniProt P10608); assay: β2-sympatholytic action: inhibition of Isoproterenol blood pressure reduction in rats under urethane narcosis; format: in vivo; details: for R.A. (relative activity), β2-sympatholytic action: Propranolol = 1.00; for R.A. (relative activity), β2-sympatholytic action / Q (footnote 6; numerically ED 50 β2 / ED 50 β1): intravenous; for Q (footnote 6; numerically ED 50 β2 / ED 50 β1): cardioselectivity quotient, rats
T1 construct: was tested on rats, weighing 230-280 g, under urethane narcosis; from tissue; host or cells: blood vessels in situ of urethane-anaesthetised rats (in vivo)
T1 sequence (P10608 whole entry): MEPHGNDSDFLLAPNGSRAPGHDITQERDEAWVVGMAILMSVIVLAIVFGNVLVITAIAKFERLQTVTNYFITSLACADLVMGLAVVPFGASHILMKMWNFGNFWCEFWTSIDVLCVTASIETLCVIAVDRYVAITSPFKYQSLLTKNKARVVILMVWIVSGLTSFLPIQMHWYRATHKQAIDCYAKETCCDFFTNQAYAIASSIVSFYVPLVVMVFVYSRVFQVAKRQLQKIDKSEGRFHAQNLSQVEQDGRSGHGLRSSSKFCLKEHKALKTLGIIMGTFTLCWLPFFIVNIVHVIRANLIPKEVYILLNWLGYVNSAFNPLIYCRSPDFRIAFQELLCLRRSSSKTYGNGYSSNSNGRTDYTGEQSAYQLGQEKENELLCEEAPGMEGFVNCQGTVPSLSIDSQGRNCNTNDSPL
Source text: (§2) The following are examples of compounds of the general formula III and/or of their acid addition salts with a physiologically safe acid: 4-(2-hydroxy-3-isopropylamino-propoxy)-1,2-benzisothiazole (III), 4-(2-hydroxy-3-tert.-butylaminopropoxy)-1,2-benzisothiazole (IV), 4-[2-hydroxy-3-(3-methylpentyl-3-amino)-propoxy]-1,2-benzisothiazole (VII), 4-[2-hydroxy-3-(2-methyl-butyl-2-amino)-propoxy]-1,2-benzisothiazole (VI), 4-[2-hydroxy-3-(2-methyl-3-but-2-ynylamino)-propoxy]-1,2-benzisothiazole (VIII), 4-(2-hydroxy-3-sec.-butylaminopropoxy-1,2-benzisothiazole (V), 4-[2-hydroxy-3-(1-methoxy-propyl-2-amino)-propoxy]-1,2-benzisothiazole (IX) and 4-[2-hydroxy-3-(pentyl-2-amino)-propoxy]-1,2-benzisothiazole (X).

cardiac β1-receptors = molecular target: T2, cardiac β1-receptors (Rattus norvegicus, UniProt P18090); assay: β1-sympatholytic action: inhibition of Isoproterenol tachycardia in pithed rats; format: in vivo, rat (Sprague-Dawley; details: Propranolol = 1.00, intravenous
T2 construct: in pithed rats (Sprague-Dawley, Mus rattus; weight 230-280 g); from tissue; host or cells: heart in situ of pithed Sprague-Dawley rats (in vivo)
T2 sequence (P18090 whole entry): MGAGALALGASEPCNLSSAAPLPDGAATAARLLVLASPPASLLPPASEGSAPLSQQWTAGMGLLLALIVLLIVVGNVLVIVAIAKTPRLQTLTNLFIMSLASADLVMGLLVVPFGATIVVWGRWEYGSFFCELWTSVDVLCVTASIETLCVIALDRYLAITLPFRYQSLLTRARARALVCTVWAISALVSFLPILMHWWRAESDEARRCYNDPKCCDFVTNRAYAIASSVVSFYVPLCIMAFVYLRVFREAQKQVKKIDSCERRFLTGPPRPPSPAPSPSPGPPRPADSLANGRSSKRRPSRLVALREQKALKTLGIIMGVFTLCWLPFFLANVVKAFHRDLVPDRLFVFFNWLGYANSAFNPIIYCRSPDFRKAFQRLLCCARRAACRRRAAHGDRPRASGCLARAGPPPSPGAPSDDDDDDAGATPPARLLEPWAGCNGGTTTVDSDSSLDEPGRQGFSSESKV
Source text: as §2

Structure (SMILES) | stability to light and to air [1] | Therapeutic range, relative (female Swiss mice) | selectivity ratio (in vivo) | R.A. (relative activity), β2-sympatholytic action ([2]; rats under urethane narcosis) | Q (footnote 6; numerically ED 50 β2 / ED 50 β1) [2] | R.A. (relative activity), β1-sympatholytic action (cardiac β1-receptors) | reduction of the mean pressure of the carotid artery, average ([2]; Isoproterenol 0.215 μg/kg i.v., rats under urethane narcosis)
CC(=O)Nc1ccc(OC(C)=O)c2cnsc12 [7-acetamino-4-acetoxy-1,2-benzisothiazole] | increased stability to light and to air |  |  |  |  |  | 
CC(C)NCC(O)COc1cccc2sncc12 (stereo not drawn) [Example III, 4-(2-hydroxy-3-isopropylamino-propoxy)-1,2-benzisothiazole] |  | 3.72 | 32700 | 2.71 | 2.21 | 6.47 | 
CC(C)(C)NCC(O)COc1cccc2sncc12 (stereo not drawn) [IV, 4-(2-hydroxy-3-tert.-butylaminopropoxy)-1,2-benzisothiazole] |  | 10.76 | 94500 | 2.84 | 2.47 | 7.55 | 
COCC(C)NCC(O)COc1cccc2sncc12 (stereo not drawn) [IX, 4-[2-hydroxy-3-(1-methoxy-propyl-2-amino)-propoxy]-1,2-benzisothiazole] |  | 3.11 |  | 0.26 | 8.90 | 2.48 | 
CC(C)NCC(O)c1ccc(O)c(O)c1 (stereo not drawn) [Isoproterenol, reference compound] |  |  |  |  |  |  | 30%
CCC(C)NCC(O)COc1cccc2sncc12 (stereo not drawn) [V, 4-(2-Hydroxy-3-sec.-butylamino-propoxy)-1,2-benzisothiazole] |  | 7.18 |  | 1.08 | 6.93 | 8.04 | 
CCC(C)(C)NCC(O)COc1cccc2sncc12 (stereo not drawn) [VI, 4-[2-hydroxy-3-(2-methyl-butyl-2-amino)-propoxy]-1,2-benzisothiazole] |  | 8.92 |  | 1.38 | 4.48 | 6.68 | 
CCC(C)(CC)NCC(O)COc1cccc2sncc12 (stereo not drawn) [VII, 4-[2-hydroxy-3-(3-methylpentyl-3-amino)-propoxy]-1,2-benzisothiazole] |  | 4.44 |  | 0.94 | 3.69 | 3.75 | 
C#CC(C)(C)NCC(O)COc1cccc2sncc12 (stereo not drawn) [VIII, 4-[2-hydroxy-3-(2-methyl-3-but-2-ynylamino)-propoxy]-1,2-benzisothiazole] |  | 9.11 |  | 1.98 | 2.50 | 5.35 | 
CCCC(C)NCC(O)COc1cccc2sncc12 (stereo not drawn) [X, 4-[2-hydroxy-3-(pentyl-2-amino)-propoxy]-1,2-benzisothiazole] |  | 2.72 |  | 0.42 | 10.70 | 4.88 | 
